From the supplement of paper PMC4862054

Key:
Settings in all cases: 72 h
BT-474 [1] = test system: BT-474
How it was run: (§1)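 After 72 h on 384-well plates pre-loaded with compound in 5 µl medium, breast cancer cell lines seeded in 20 µl were assayed for viability with 2.5 µl CellTiter-Blue at 37 °C for 2 h, read at 560/590 nm. Each plate was quality-checked by Z'-factor and normalised to vehicle and a positive kill control. EC50 comes from the fitted percent-inhibition dose-response curve, censored at the top concentration, and rows scoring zero for drug sensitivity were left out.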

HDQ-P1 [2] = test system: HDQ-P1
How it was run: (§2)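 Breast cancer cell lines in 20 µl suspension were added to 384-well plates already holding compound at 5 concentrations, spaced in 10-fold steps across a compound-specific 10,000-fold range, and incubated for 72 h. CellTox Green fluorescence (485/520 nm) was read first to measure cell death, followed by CellTiter-Glo luminescence for viability after 10 min at room temperature. Each plate was normalised to 0.1 % DMSO and a positive kill control. EC50 values came from dose-response curve fits and were censored at the top concentration.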

MDA-MB-436 [3] = test system: MDA-MB-436
How it was run: as §2

MCF-10A [4] = test system: MCF-10A
How it was run: as §2

Hs578T [5] = test system: Hs578T
How it was run: as §2

CAL-85-1 [6] = test system: CAL-85-1
How it was run: as §2

MFM-223 [7] = test system: MFM-223
How it was run: as §2

BT-549 [8] = test system: BT-549
How it was run: as §2

DU-4475 [9] = test system: DU-4475
How it was run: as §2

CAL-120 [10] = test system: CAL-120
How it was run: as §2

MDA-MB-231 [11] = test system: MDA-MB-231
How it was run: as §2

HCC1599 [12] = test system: HCC1599
How it was run: as §2

MDA-MB-453 [13] = test system: MDA-MB-453
How it was run: as §2

SK-BR-3 = test system: SK-BR-3
How it was run: as §2

CAL-148 [14] = test system: CAL-148
How it was run: as §2

MDA-MB-468 [15] = test system: MDA-MB-468
How it was run: as §2

CAL-51 [16] = test system: CAL-51
How it was run: as §2

HCC1937 [17] = test system: HCC1937
How it was run: as §2

BT-474 [18] = test system: BT-474; remark: listed apart in the source
How it was run: as §2

HCC1143 [19] = test system: HCC1143
How it was run: as §2

HDQ-P1 [20] = test system: HDQ-P1; remark: listed apart in the source
How it was run: as §1

HDQ-P1 [21] = test system: HDQ-P1; remark: listed apart in the source
Description: (§3)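 Drug sensitivity and resistance testing (DSRT) of breast cancer cell lines in 384-well plates, 5 concentrations in 10-fold dilutions over a compound-specific 10,000-fold range. After 72 h, cytotoxicity was read by CellTox Green fluorescence and viability by CellTiter-Glo luminescence (multiplexed), normalised to DMSO and benzethonium chloride controls. EC50 is the inflection point of the fitted dose-response curve (bottom asymptote free, so it can be relative for partial curves) and is censored at the highest tested concentration. Rows with DSS 0 (no meaningful response) were excluded.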

MCF-10A [22] = test system: MCF-10A; remark: listed apart in the source
Description: as §3

Hs578T [23] = test system: Hs578T; remark: listed apart in the source
Description: as §3

CAL-85-1 [24] = test system: CAL-85-1; remark: listed apart in the source
Description: as §3

DU-4475 [25] = test system: DU-4475; remark: listed apart in the source
Description: as §3

CAL-120 [26] = test system: CAL-120; remark: listed apart in the source
Description: as §3

MDA-MB-231 [27] = test system: MDA-MB-231; remark: listed apart in the source
Description: as §3

MDA-MB-453 [28] = test system: MDA-MB-453; remark: listed apart in the source
Description: as §3

CAL-148 [29] = test system: CAL-148; remark: listed apart in the source
Description: as §3

CAL-51 [30] = test system: CAL-51; remark: listed apart in the source
Description: as §3

HCC1937 [31] = test system: HCC1937; remark: listed apart in the source
Description: as §3

BT-474 [32] = test system: BT-474; remark: listed apart in the source
Description: as §3

MDA-MB-436 [33] = test system: MDA-MB-436; remark: listed apart in the source
Description: as §3

MFM-223 [34] = test system: MFM-223; remark: listed apart in the source
Description: as §3

BT-549 [35] = test system: BT-549; remark: listed apart in the source
Description: as §3

HCC1599 [36] = test system: HCC1599; remark: listed apart in the source
Description: as §3

MDA-MB-468 [37] = test system: MDA-MB-468; remark: listed apart in the source
Description: as §3

HCC1143 [38] = test system: HCC1143; remark: listed apart in the source
Description: as §3

| SMILES | EC50, CellTiter-Blue viability (BT-474 [1]) [nM] | EC50, CellTiter-Glo (HDQ-P1 [2]) [nM] | EC50, CellTiter-Glo (MDA-MB-436 [3]) [nM] | EC50, CellTiter-Glo (MCF-10A [4]) [nM] | EC50, CellTiter-Glo (Hs578T [5]) [nM] | EC50, CellTiter-Glo (CAL-85-1 [6]) [nM] | EC50, CellTiter-Glo (MFM-223 [7]) [nM] | EC50, CellTiter-Glo (BT-549 [8]) [nM] | EC50, CellTiter-Glo (DU-4475 [9]) [nM] | EC50, CellTiter-Glo (CAL-120 [10]) [nM] | EC50, CellTiter-Glo (MDA-MB-231 [11]) [nM] | EC50, CellTiter-Glo (HCC1599 [12]) [nM] | EC50, CellTiter-Glo (MDA-MB-453 [13]) [nM] | EC50, CellTiter-Glo (SK-BR-3) [nM] | EC50, CellTiter-Glo (CAL-148 [14]) [nM] | EC50, CellTiter-Glo (MDA-MB-468 [15]) [nM] | EC50, CellTiter-Glo (CAL-51 [16]) [nM] | EC50, CellTiter-Glo (HCC1937 [17]) [nM] | EC50, CellTiter-Glo (BT-474 [18]) [nM] | EC50, CellTiter-Glo (HCC1143 [19]) [nM] | EC50, CellTiter-Blue viability (HDQ-P1 [20]) [nM] | EC50, CellTox Green (HDQ-P1 [21]) [nM] | EC50, CellTox Green (MCF-10A [22]) [nM] | EC50, CellTox Green (Hs578T [23]) [nM] | EC50, CellTox Green (CAL-85-1 [24]) [nM] | EC50, CellTox Green (DU-4475 [25]) [nM] | EC50, CellTox Green (CAL-120 [26]) [nM] | EC50, CellTox Green (MDA-MB-231 [27]) [nM] | EC50, CellTox Green (MDA-MB-453 [28]) [nM] | EC50, CellTox Green (CAL-148 [29]) [nM] | EC50, CellTox Green (CAL-51 [30]) [nM] | EC50, CellTox Green (HCC1937 [31]) [nM] | EC50, CellTox Green (BT-474 [32]) [nM] | EC50, CellTox Green (MDA-MB-436 [33]) [nM] | EC50, CellTox Green (MFM-223 [34]) [nM] | EC50, CellTox Green (BT-549 [35]) [nM] | EC50, CellTox Green (HCC1599 [36]) [nM] | EC50, CellTox Green (MDA-MB-468 [37]) [nM] | EC50, CellTox Green (HCC1143 [38]) [nM] |
| --- | --- | --- | --- | --- | --- | --- | --- | --- | --- | --- | --- | --- | --- | --- | --- | --- | --- | --- | --- | --- | --- | --- | --- | --- | --- | --- | --- | --- | --- | --- | --- | --- | --- | --- | --- | --- | --- | --- | --- |
| CCNC(=O)c1noc(-c2cc(C(C)C)c(O)cc2O)c1-c1ccc(CN2CCOCC2)cc1 [NVP-AUY922] | 23.4 | 14.1 | 5.43 | 27.6 | 41.8 | 38.8 | 10.2 | 11.7 | 33.1 | 37.2 | 40.4 | 37.1 | 42.6 | 7.09 | 41.4 | 4.55 | 34 | 28 | 42.4 | 38.7 | 9.72 | 33 | 7.61 | 247 | 84.1 | 25.2 | > 1000 | 9.41 | > 1000 | 29.5 | 74.6 | 987 | 219 |  |  |  |  |  |  |
| CC(C)(C)c1nc(-c2cccc(NS(=O)(=O)c3c(F)cccc3F)c2F)c(-c2ccnc(N)n2)s1 [Dabrafenib] |  |  |  |  | > 2500 |  |  |  | 60 | 56.3 |  |  |  |  |  |  |  |  |  |  |  |  |  | 9.91 |  | 224 |  |  |  |  |  |  |  |  |  |  |  |  |  |
| C=CCn1c(=O)c2cnc(Nc3ccc(N4CCN(C)CC4)cc3)nc2n1-c1cccc(C(C)(C)O)n1 [MK1775] | 249 | 326 | 308 | 621 | 275 | 294 | 250 | 373 | 1740 | 740 | 172 | 183 | 66.3 | 203 | 190 | 759 | 380 | 344 | 233 | 558 | 318 | 467 | 1270 | 2130 | 331 |  | 1380 | 203 |  | 143 | 154 |  | 928 | 69.7 | 267 | 1430 | 54.1 | 156 | 5090 |
| CC(=O)[C@]1(O)Cc2c(O)c3c(c(O)c2[C@@H](O[C@H]2C[C@H](N)[C@H](O)[C@H](C)O2)C1)C(=O)c1ccccc1C3=O [Idarubicin] | 116 | 837 | 134 | 455 | 281 | 252 | 470 | 144 | 193 | 580 | 286 | 466 | 750 | 185 | 125 | 152 | 49.1 | 665 | 404 | 531 | 277 |  | 642 |  | 198 |  |  |  |  | 31.9 | 148 |  | 53.5 |  | 806 |  |  | 82.7 |  |
| CO[C@@H]1[C@H](N(C)C(=O)c2ccccc2)C[C@H]2O[C@]1(C)n1c3ccccc3c3c4c(c5c6ccccc6n2c5c31)C(=O)NC4 [Midostaurin] |  | 465 | 690 | 130 | 254 | 831 | 595 | 585 | 562 | 275 | 265 |  |  | 634 |  | 229 | 308 | 547 | 275 | 414 | 1130 | 1970 |  | 997 |  |  | 510 | 193 |  |  | 29.6 |  |  |  |  | 1060 |  | 384 |  |
| COc1ccc(S(=O)(=O)Nc2cccnc2Nc2ccc(O)cc2)cc1 [ABT-751] | 552 | 231 | 507 | 5770 | 773 | 264 | 1010 | 499 | 1510 | 218 | 740 | 752 | 149 | 529 | 6970 | 397 | 6520 | 350 | 575 | 644 | 245 |  | 6830 | 1410 | 194 |  | > 10000 | 497 |  |  | 7380 |  |  | 116 | 5430 | 190 |  | 2.99 |  |
| CC(C)n1cnc2c(NCCc3ccc(O)cc3)nc(-c3csc4ccccc34)nc21 [StemRegenin 1] |  | 4790 | 7630 |  |  |  | 2020 | 565 |  |  |  |  | > 10000 |  |  | 9610 |  | > 10000 |  |  |  |  |  |  |  |  |  |  |  |  |  |  | > 10000 |  | 2810 |  |  |  |  |
| O=C(CCCCCCC(=O)Nc1ccccc1)NO [Vorinostat] | 2290 | 8320 |  | 8980 | 6670 | 2320 | 5670 | 7340 | 2300 | 8470 | 3170 | 3990 | 1180 | 3470 | 2140 | 1200 | 2180 | 6280 | 3760 | 4590 |  |  |  | 948 |  |  | 6840 | 1720 |  | 8260 | 2660 |  | 6410 |  |  | > 10000 |  | 6570 | 6130 |
